# Assay results published in patent US4791215A, “Derivatives of glutamic acid and aspartic acid” (priority 1984, dated 1988).
# Read-outs that look alike come from different tables or passages of the source.
# Tests used:
# morphine analgesia = assay: Increase in analgesia of morphine, Tail Flick Test (Experiment 1); assay type: in vivo, rats
# Procedure, shortened: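 Non-fasted male rats (150-200 g); a tail point is exposed to a 75 °C heat source and latency to tail movement recorded, 8 s cut-off. Readings taken before and 10, 20, 30, 45, 60 and 90 min after analgesic treatment; percentage variation calculated per animal.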
# [1] = tested on: CCK-8 induced contraction of guinea pig gall bladder; assay: Anti-CCK activity on gall bladder strips in vitro
# Procedure, shortened: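 Longitudinal guinea pig gall bladder strips in Krebs at 32 °C, gassed with O2/CO2 95:5, were contracted with 10 ng/ml CCK-8. Isometric force was recorded across several compound concentrations, and ED50 was taken as the μg/ml concentration antagonising 50% of the CCK contraction.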
# [2] = tested on: intestinal transit of carbon; assay: Anti-spastic activity, vegetable carbon intestinal transit test; assay type: in vivo, mice; conditions: Mus musculus, ip; read-out: antispastic activity ED50 (dose reducing intestinal transit of carbon by 50%)
# Text: The anti-spastic activity which the present compounds exert on the entire digestive system is also notable. Measured in mice with the vegetable carbon test (rate of transit through the stomach and the intestine), this activity is illustrated in the following table.
# claimed administered intraperitoneally in mice. Values
# expressed as the ED 50 in mg/kg, that is the dose which
# reduces the intestinal transit of carbon by 50%
# [3] = tested on: CCK-8 induced contraction of rabbit colon; assay: Anti-spastic activity in the colon stimulated by CCK-8; assay type: in vivo
# Description: A much more specific anti-spastic activity, that is adhering much more to a physiological situation, is illustrated by the following experiment.
# The abdomen of an anaesthetised rabbit was cut open to show the transverse colon. A small balloon full of water was inserted at the point established and connected to a pressure transducer by means of a polythene cannula filled with water.
# The optimum sensitivity was fixed in relation to the physiological conditions and the products were administered through the femoral vein. Contractions were induced by the administration of 100 ng/kg of CCK.
# [4] = Body weight on daily oral dosing; assay type: in vivo, rats
# Description: (§1) In order to check the hypothesis that the anti-CCK activity shown by most of the compounds in question may be used to advantage in the treatment of anorexia in man or as an appetite stimulant for farm animals, the following experiment was carried out:
# (§2) Male rats having a weight of about 160 g, divided into groups of 10 animals, were used. […]
# (§3) The drug, in the form of the sodium salt, was dissolved in water and administered in a volume of 10 ml of H2 O/kg while the control group received an equal volume of the solvent alone.
# (§4) The following tables give the average values of the food consumption and the average weight of each group of animals, calculated weekly as well as the Student's t value calculated from the various treated groups and the group of control animals.
# [5] = Food consumption on daily oral dosing; assay type: in vivo, rats
# Description: as §1, §2, §3, §4
# normal pancreatic cells = assay: Trophic action of CCK-8 on normal pancreas; assay type: in vivo, hamsters
# Text: (§5) The anti-cholecystokinin effect of the most powerful of the compounds which are the subject of the present invention, that is the compound C-7, on the trophic activity of CCK on normal pancreatic cells and on those of a pancreatic adenocarcinoma is to be studied.
# (§6) Male hamsters were inoculated in the cheek pouches with a suspension of 1×10^5 tumoral cells of a pancreatic adenocarcinoma. Five days after the inoculation the animals were divided at random into 4 groups of 10 animals each, that is, a control group, a group of animals treated with 10 μg/kg of CCK-8 three times a day, a group of animals treated with 5 mg/kg i.p. of compound C-7 three times a day, and a fourth group treated simultaneously with the compound C-7 and CCK-8 in the manner described above.
# (§7) After 15 days of this treatment, the animals were killed, and the normal pancreas and the inoculated pancreatic tumours in the cheek pouches were collected and weighed. The DNA was extracted and measured according to conventional techniques.
# (§8) The results thus obtained are given in Table 13, expressed as mean values (±S.E.)
# [6] = tested on: pancreatic adenocarcinoma; assay type: in vivo, hamsters
# Text: as §5, §6, §7, §8
# [7] = 10 mcg/kg CCK-8 + compound 5 mg/kg, 3 times a day
# [8] = compound 5 mg/kg i.p. 3 times per day
smiles,measurement,setting,value
CCCCCN(CCCCC)C(=O)C(CCC(=O)O)NC(=O)c1ccc(Cl)c(Cl)c1 (stereo not shown) [Compound C-7],percentage variation of latency of pain sensation,"morphine analgesia; 10', compound 10 mg/kg i.p. + morphine 2 mg/kg",67.9 ± 14.3%
same,percentage variation of latency of pain sensation,"morphine analgesia; 20', compound 10 mg/kg i.p. + morphine 2 mg/kg",71.5 ± 17.6%
same,percentage variation of latency of pain sensation,"morphine analgesia; 30', compound 10 mg/kg i.p. + morphine 2 mg/kg",79.4%
same,percentage variation of latency of pain sensation,"morphine analgesia; 45', compound 10 mg/kg i.p. + morphine 2 mg/kg",84.6 ± 10.5%
same,percentage variation of latency of pain sensation,"morphine analgesia; 60', compound 10 mg/kg i.p. + morphine 2 mg/kg",92.9 ± 4.1%
same,percentage variation of latency of pain sensation,"morphine analgesia; 90', compound 10 mg/kg i.p. + morphine 2 mg/kg",72.6 ± 7.0%
same,"M (10-90) ± SE, mean percentage variation of latency","morphine analgesia; mean 10-90 min, compound 10 mg/kg i.p. + morphine 2 mg/kg",78.2 ± 9.4%
same,Power ratio with respect to morphine alone,"morphine analgesia; rat, in vivo",2.62
same,active concentration relative to that of CCK-8,[1]; 50% antagonism of CCK-8,about 10 times
same,ED50 (concentration antagonising 50% of contracting effect of CCK-8),[1]; CCK-8 10 ng/ml,0.06 µg/mL
same,ED50,[2],16.8 mg/kg
same,effect on CCK-8 stimulated colon,"[3]; 3 mg/kg iv, single experiments",-100.0
same,ED50,"[3]; Oryctolagus cuniculus, iv, CCK 100 ng/kg",1.11 mg/kg
same,body weight,"[4]; 0.3 mg/kg os, time 0",162.1 ± 2.48 g
same,body weight,"[4]; 0.3 mg/kg os, week 1",201.3 ± 2.7 g
same,body weight,"[4]; 0.3 mg/kg os, week 2",254.5 ± 2.66 g
same,body weight,"[4]; 0.3 mg/kg os, week 3",315.2 ± 2.72 g
same,body weight,"[4]; 1 mg/kg os, time 0",166.0 ± 1.56 g
same,body weight,"[4]; 1 mg/kg os, week 1",214.7 ± 1.93 g
same,body weight,"[4]; 1 mg/kg os, week 2",267.5 ± 2.6 g
same,body weight,"[4]; 1 mg/kg os, week 3",319.8 ± 2.49 g
same,body weight,"[4]; 3 mg/kg os, time 0",166.6 ± 1.73 g
same,body weight,"[4]; 3 mg/kg os, week 1",227.9 ± 1.65 g
same,body weight,"[4]; 3 mg/kg os, week 2",290.9 ± 2.6 g
same,body weight,"[4]; 3 mg/kg os, week 3",349.5 ± 2.82 g
same,weight increase versus control animals,"[4]; 0.3, 1 and 3 mg/kg os",significantly greater weight increase than the control animals
same,increase in food consumption compared with controls,[5]; 0.3 mg/kg daily,about 15%
same,food consumption,"[5]; 0.3 mg/kg os, week 1",176.4 ± 3.70 g/week
same,food consumption,"[5]; 0.3 mg/kg os, week 2",216.8 ± 4.71 g/week
same,food consumption,"[5]; 0.3 mg/kg os, week 3",239.3 ± 4.07 g/week
same,food consumption,"[5]; 1 mg/kg os, week 1",199.6 ± 3.88 g/week
same,food consumption,"[5]; 1 mg/kg os, week 2",230.5 ± 3.09 g/week
same,food consumption,"[5]; 1 mg/kg os, week 3",261.4 ± 4.24 g/week
same,food consumption,"[5]; 3 mg/kg os, week 1",198.4 ± 3.66 g/week
same,food consumption,"[5]; 3 mg/kg os, week 2",244.8 ± 3.09 g/week
same,food consumption,"[5]; 3 mg/kg os, week 3",268.8 ± 4.86 g/week
same,increase in food consumption compared with controls,"[5]; other doses tested (1, 3 mg/kg daily)",about 30%
same,Pancreas weight,normal pancreatic cells; [7],374 ± 25.4 mg
same,Pancreatic DNA,normal pancreatic cells; [7],1.0 ± 0.08 mg
same,Pancreas weight,normal pancreatic cells; [8],336 ± 22.6 mg
same,Pancreatic DNA,normal pancreatic cells; [8],0.93 ± 0.09 mg
same,TUMORAL DNA,[6]; [7],0.4 ± 0.02 mg
same,Weight of Pancreatic Carcinoma,[6]; [7],109.5 ± 6.2 mg
same,TUMORAL DNA,[6]; [8],0.42 ± 0.02 mg
same,Weight of Pancreatic Carcinoma,[6]; [8],104 ± 7.5 mg
same,effect on growth of pancreatic adenocarcinoma / CCK-8 actions,"[6]; hamster, in vivo",antagonises both these actions of CCK-8 in a higly significant manner
